Data as given in US12115182B2, “Adenosine A2A agonists for the treatment of cytokine storm syndrome” (priority 2021, dated 2024).
“Also recorded” adds a separate entry of the source.

Experiments:
circulating iNKT cells = assay: Flow cytometry of CD69 on circulating iNKT cells of COVID-19 patients during regadenoson infusion; type: in vivo, human
[1] = tested on: plasma proinflammatory cytokines/chemokines; assay: Luminex plasma cytokines/chemokines in regadenoson-treated COVID-19 patients; type: in vivo, human
SARS-CoV-2 = assay: Regadenoson in SARS-CoV-2-infected K18-ACE2 mice: survival; type: in vivo, mouse; details: for survival / mortality of infected K18-ACE2 mice: 1.44 μg/kg/hr, 7-day Alzet pump, vs saline
[2] = tested on: lung transplant recipients; assay: Regadenoson infusion in lung transplant recipients: clinical outcomes, hemodynamics, safety; type: in vivo
Protocol: The rational for dose selection was published in our previous publication (LAU et al., J Heart Lung Transplant, (2020), 39:563-570. We enrolled 4 additional lung transplantation patients that were treated with regadenoson at 1.44 ug/kg/hour for 12 hours. Our previous publication, infusion of regadenoson (1.44 ug/kg/hour for 12 hours) was safe in 10 lung transplantation patients. In the lung transplantation population, the median peak plasma levels of regadenoson infused were 1.68 ng/ml (range 1.2 to 1.9 ng/ml). Based on this preliminary result, we modified our protocol to a high dose infusion at the 2.88 ug/kg/hour for 12 hours in the last three lung transplantation recipients. FDA, NIH/NHLBI designated DSMB and institutional IRB approved our modification. The regadenoson infusion started at the time of skin incision, continued throughout the transplant procedure and into the immediate postoperative period for a total duration of 12 hours. Enrollment of bilateral lung transplant control patients
Primary end-points included dose-limiting toxicities and 30-day mortality. Secondary outcomes included PGD scores evaluated at 24, 48, and 72 hours, ICU length of stay, hospital length of stay, need for post-transplant extracorporeal membrane oxygenation, duration of mechanical ventilation post-operatively, and 12-month survival. Clinical parameters including blood pressure, heart rate, mean arterial pressure, pulmonary arterial pressure, were monitored and collected. Continuous variables are listed as mean and standard deviation, whereas categorical variables are presented as counts.
(§1) Statistical differences of cytokine/chemokines, heart rates and blood pressures between groups were determined by two-way ANOVA followed by Tukey's multiple comparison test (GraphPad Prism 9.0). The PGD scores were analyzed by chi-squared test. The intubation times and hospital LOS, ICU LOS were analyzed by ANOVA of log and Kruskal-Wallis. Data was reported as means±SD. P value equal or less than 0.05 was considered significant.

[3] = tested on: plasma cytokines/chemokines; assay: Plasma cytokines/chemokines in lung transplant recipients (11-plex); type: in vivo, human
Protocol: (§2) Blood was drawn for cytokine/chemokine, damage associated molecular patterns (DAMPs) at the following different timepoints: 1) before infusion (baseline), 2) 15 minutes before reperfusion of the 1st lung, 3) 30 minutes after reperfusion of 1st lung, 4) 30 minutes after reperfusion of 2nd lung, and 5) 6 hours after reperfusion of 1st lung.
(§3) The cytokines/chemokines, HMGB1 and sRAGE were determined at The University of Virginia Flow Cytometry Core (RRID: SCR 017829) as previously described (LAU et al., J Heart Lung Transplant, (2020), 39:563-570). The customized 11-plex cytokine panel detects IL-1, IL-2, IL-6, IL-7, IL-8, IL-10, IL-12P40, IL-12P70, IL-17, TNFa, and IFN-γ (Millipore Sigma, Burlington, MA).
as §1

[4] = tested on: soluble receptor for advanced glycation end-products (sRAGE); assay: Plasma sRAGE in lung transplant recipients; type: in vivo, human
Protocol: as §2, §3
We designed this trial mainly as a Phase I safety and feasibility study that would allow an optimal infusional dose to be determined based on dose-limiting toxicities identified in lung transplant recipients. We also evaluated the potential efficacy by clinical outcomes and the lab evaluation of various cytokines/chemokines, DAMPs and enzymes. […] HMGB1 and sRAGE levels were measured using a customized human Cytokine/Chemokine multiplex immunoassay (Millipore Sigma, Burlington, MA) at The University of Virginia Flow Cytometry Core (RRID: SCR_01 7829) as previously described (LAU et al., J Heart Lung Transplant, (2020), 39:563-570).

MMP-9 = assay: Gelatin zymography of plasma MMP-9 in lung transplant recipients; type: in vivo, human; details: low and high dose vs control, 30 minutes after 1st and 2nd lung reperfusion
Protocol: We designed this trial mainly as a Phase I safety and feasibility study that would allow an optimal infusional dose to be determined based on dose-limiting toxicities identified in lung transplant recipients. We also evaluated the potential efficacy by clinical outcomes and the lab evaluation of various cytokines/chemokines, DAMPs and enzymes. Blood was drawn for cytokine/chemokine, DAMPs and MMP-2/-9 analysis at the following different timepoints: 1) before infusion, 2) 15 minutes before reperfusion of the 1st lung, 3) 30 minutes after reperfusion of 1st lung, 4) 30 minutes after reperfusion of 2nd lung, and 5) 6 hours after reperfusion of 1st lung. HMGB1 and sRAGE levels were measured using a customized human Cytokine/Chemokine multiplex immunoassay (Millipore Sigma, Burlington, MA) at The University of Virginia Flow Cytometry Core (RRID: SCR_01 7829) as previously described (LAU et al., J Heart Lung Transplant, (2020), 39:563-570).
Plasma samples were collected as described above. Protein concentrations were determined with BCA protein assay. Equal amounts of proteins (20 μg) were loaded in each lane for MMP-2 and-9 gelatinolytic activity detection by use of gelatin zymography as our previous publications (ZHAO et al., J Biol Chem, (2003), 278:15056-15064; ZHAO et al., Am J Physiol Lung Cell Mol Physiol, (2011), 300: L718-729).

MHS cells = assay: RAGE shedding in alveolar macrophages (MHS): Western blot of sRAGE, immunofluorescence of RAGE; type: cell-based, mouse; details: PMA-treated MHS cells; GM6001 2 nM, regadenoson 100 nM, ATL146e 10 nM
[5] = tested on: SARS-CoV-2 strain B.1.351; type: in vivo, Golden Syrian hamster
[6] = day 7, Alzet minipump 80 μg/ml in PBS
[7] = cited from earlier work
[8] = PI day 7, compared to control group

With `CNC(=O)c1cnn(-c2nc(N)c3ncn([C@@H]4O[C@H](CO)[C@@H](O)[C@H]4O)c3n2)c1` [Regadenoson] the “expression of activation marker CD69 on circulating iNKT cells” value (circulating iNKT cells; 4 hours into the maintenance dose) was “significantly reduced”, the “expression of activation marker CD69 on circulating iNKT cells” value (circulating iNKT cells; after the 30 min loading dose) was “significantly reduced” and the “reduction of the fraction of circulating iNKT cells that are CD69+” value (circulating iNKT cells; within 30 minutes) was 50%. For the same molecule, the measured cytokines reduced ([1]; 14-plex Luminex panel, after 4 hours of regadenoson infusion) was “Twelve of the fourteen”, the “levels of 13 pro-inflammatory cytokines, ratio over baseline” value ([1]; 30 minutes after start of RA infusion) was “very little effect” and the “pro-inflammatory cytokines reduced, ratio over baseline” value ([1]; 4.5 hours after start of RA infusion) was 11 of 13. For the same molecule, the treated mice died (SARS-CoV-2; 1.44 μg/kg/hr subcutaneous infusion, 7-day pump, mostly on day 7) was 50%, the “survival / mortality of infected K18-ACE2 mice” value (SARS-CoV-2) was “increases survival” and the “survival / mortality of infected K18-ACE2 mice” value (SARS-CoV-2; listed as RA) was “decreases mortality”. The “PGD scores at 24 hours post transplantation” value ([2]; 1.44 ug/kg/h vs control patients, p=0.024) was “significantly improved”, the “drug related serious adverse events or dose limiting toxicities” value ([2]; 14 low dose-treated (1.44 ug/kg/h) and 3 high dose-treated (2.88 ug/kg/h) recipients) was “no drug related serious adverse events or dose limiting toxicities were observed” and the “PGD scores at 24 hours, 48 and 72 hours” value ([2]; both 1.44 and 2.88 ug/kg/h groups vs control patients) was “also improved when compared with control patients but did not reach significance”. The “blood pressure, heart rate, mean arterial pressure and pulmonary arterial pressure” value ([2]; during regadenoson infusion for 12 hours, P>0.05) was “did not significantly alter”, the seizure ([2]; one subject, may not directly relate to regadenoson infusion) was “A seizure was observed at the 36 hours post regadenoson infusion in one of the subjects” and the “hospital length of stay (LOS) and ICU LOS” value ([2]; vs control patients) was “reduced, but not significantly altered”. For the same molecule, the intubation time ([2]; vs control patients) was “trended to decrease”, the “transplant-induced elevation of TNF-α” value ([3]; 30 minutes after reperfusion of 1st lung, low dose p=0.071, high dose p=0.154) was “trended toward reducing” and the “transplantation-induced plasma levels of IL-6” value ([3]; 30 minutes after reperfusion of 2nd lung, low dose p=0.041, high dose p=0.007 vs control) was “significantly inhibited”. For the same molecule, the “plasma IL-10” value ([3]; low dose infusion, p=0.078) was “trended toward increasing”, the “plasma levels of IL-8” value ([3]; low dose, 30 minutes after reperfusion of 2nd lung, p=0.032) was “significantly reduced” and the “transplantation-induced plasma levels of sRAGE” value ([4]; 30 minutes post 1st lung reperfusion (low dose) and 30 minutes post 2nd lung reperfusion (low and high dose), P<0.0001 vs control) was “significantly diminished; also recorded: significantly reduced”. For the same molecule, the “plasma sRAGE level” value ([4]; high dose, 30 minutes post the 1st lung reperfusion, P=0.0656) was “decreased in trend”, the “gelatinolytic activity of MMP-9 in plasma” value (MMP-9) was “significantly decreased” and the “PMA-induced shedding of cell membrane-anchored RAGE” value (MHS cells) was “suppressed the shedding of RAGE; also recorded: partially inhibited”. The “albumin leakage into BAL” value [5, 8] was “slight increase; also recorded: did not significantly”, the “plasma IL13” value [5, 8] was “slightly depressed; also recorded: did not significantly” and the “time course of the disease or viral titer detected in throat swabs” value ([5]; RT-qPCR) was “did not significantly”. For the same molecule, the “plasma IL4” value ([5]; compared to control) was “depressed; also recorded: did significantly”, the “decrease in weight gain” value ([5]; daily weights, vs control group) was “did not significantly” and the “histologic distribution or severity of lung pathology” value ([5]; day 7) was “did not significantly”. For the same molecule, the “plasma Transforming Growth Factor beta (TGFb)” value ([5]; day 7, compared to control) was “decreased; also recorded: did significantly”, the “spread of virus to olfactory bulb (brain)” value ([5]; day 7, compared to control) was “decreased; also recorded: did significantly” and the “respiratory physiology parameters (EF50, Rpef, Penh)” value ([5]; whole body plethysmography, PI day 7) was “did not significantly”. The “mean +/-SEM plasma level for Regadenoson” value [6] was 7.6 ± 1.3 ng/mL, the peak plasma level ([7]; 400 μg bolus over 10 seconds for myocardial perfusion imaging) was “about 15 ng/ml” and the steady-state plasma level ([7]; after infusion for 6 hours of 1.44 μg/kg/h, prior sickle cell disease trial) was “about 2 ng/ml”. The terminal half-life ([7]; in vivo) was 2 h and the “safety / side effects” value ([7]; infusion at 1.44 μg/kg/h for 24-48 h, sickle cell crisis and lung transplantation) was “safe and devoid of side effects”.
